Test results as given in BindingDB's records for doi:10.1021/cb300426u (University of St. Andrews, 2013).

Molecular target: Glucose-1-phosphate thymidylyltransferase (Pseudomonas aeruginosa (strain ATCC 15692 / DSM 22644 / CIP 104116 / JCM 14847 / LMG 12228 / 1C / PRS 101 / PAO1), UniProt Q9HU22)
Experiment: Inhibition Assay
Text: Inhibition assay using glucose-1-phosphate thymidylyltransferase (RmlA).

Sequence of Glucose-1-phosphate thymidylyltransferase (Q9HU22 whole entry): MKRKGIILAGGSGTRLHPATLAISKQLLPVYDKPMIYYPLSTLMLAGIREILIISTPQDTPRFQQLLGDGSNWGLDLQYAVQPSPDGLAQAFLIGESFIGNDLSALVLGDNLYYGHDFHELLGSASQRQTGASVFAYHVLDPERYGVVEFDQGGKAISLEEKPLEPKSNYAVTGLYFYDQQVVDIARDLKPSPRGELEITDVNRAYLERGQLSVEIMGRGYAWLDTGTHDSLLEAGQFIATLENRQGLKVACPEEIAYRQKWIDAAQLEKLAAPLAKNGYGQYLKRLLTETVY

**Q.** Which IC50 does the source give for `CNc1c(N)n(Cc2ccccc2)c(=O)[nH]c1=O` [6-azanyl-5-(methylamino)-1-(phenylmethyl)pyrimidine-2,4-dione] here?
**A.** > 60000 nM

**Q.** `CCCCn1c(N)c(N(C)S(=O)(=O)c2ccccc2)c(=O)[nH]c1=O` [Analogue of 1a, 1] was tested. Which IC50 did it give?
**A.** 210 nM

**Q.** How did the IC50 turn out when `Nc1c(O)n(Cc2ccccc2)c(=O)[nH]c1=O` [Analogue of 1a, 2] was run?
**A.** 1140 nM

**Q.** Which IC50 does the source give for `CCCCn1c(N)c(N(C)C(=O)c2ccco2)c(=O)[nH]c1=O` [Analogue of 1a, 5] here?
**A.** 5900 nM

**Q.** With `CN(c1c(N)n(Cc2ccccc2)c(=O)[nH]c1=O)S(=O)(=O)c1ccccc1` [Analogue of 1a, 8a] as the compound, how does the IC50 read?
**A.** 73 nM

**Q.** With `CCN(c1c(N)n(Cc2ccccc2)c(=O)[nH]c1=O)S(=O)(=O)c1ccccc1` [Analogue of 1a, 8b] as the compound, how does the IC50 read?
**A.** 102 nM

**Q.** `CCCN(c1c(N)n(Cc2ccccc2)c(=O)[nH]c1=O)S(=O)(=O)c1ccccc1` [Analogue of 1a, 8c] was tested. Which IC50 did it give?
**A.** > 10000 nM

**Q.** `CN(C(=O)c1ccccc1)c1c(N)n(Cc2ccccc2)c(=O)[nH]c1=O` [Analogue of 1a, 8f] was tested. Which IC50 did it give?
**A.** > 60000 nM

**Q.** With `CN(c1c(N)n(Cc2ccccc2)c(=O)[nH]c1=O)S(=O)(=O)c1ccco1` [Analogue of 1a, 8t] as the compound, how does the IC50 read?
**A.** 105 nM

**Q.** With `Nc1c(NS(=O)(=O)c2ccccc2)c(=O)[nH]c(=O)n1Cc1ccccc1` [Analogue of 1a, 15a] as the compound, how does the IC50 read?
**A.** 1320 nM
